Laboratory results from patent US9382245B2, “Compounds and methods for treating HIV infections” (priority 2013, dated 2016).
Read-outs that look alike come from different tables or passages of the source.

Assays:
human MT-2 T-cells = conditions: human
[1] = Aqueous solubility, shake-flask procedure; format: physicochemical; conditions: Britton-Robinson buffer, 25 °C, pH 6.5, aqueous buffer, thermodynamic from solid
Protocol: Poor solubility, which has been a problem for many NNRTIs, often leads too low bioavailability, difficulties in formulation, and high dosages.^6,32,33 The issue reflects the hydrophobic nature of the NNRTI binding site. In the design of the catechol diethers, attention was paid to having both good potency and aqueous solubility. In our laboratory, solubilities are measured using a shake-flask procedure.^6,34 The compounds are dissolved in Britton-Robinson buffer and stirred in vials for 48 hours at 25° C. The pH of the buffer solutions is 6.5 as measured by a Corning General Purpose pH Combination probe (4136L21).

in vitro = conditions: human

N#C/C=C/c1cc(Cl)cc(Oc2ccccc2OCCn2ccc(=O)[nH]c2=O)c1 [1c, (E)-3-(3-chloro-5-(2-(2-(2,4-dioxo-3,4-dihydropyrimidin-1(2H)-yl)ethoxy)phenoxy)phenyl)acrylonitrile]
CC50 (human MT-2 T-cells): 18 µM | solubility at 48 h ([1]; Table 2, pH 6.5, Britton-Robinson buffer, 48 hours at 25° C., read-out: S, aqueous solubility): 510 µg/mL | solubility at 48 h ([1]; shake-flask, pH 6.5, read-out: aqueous solubility): 510 µg/mL

O=c1ccn(CCOc2ccccc2Oc2cccc3[nH]ccc23)c(=O)[nH]1 [8a, 1-(2-(2-((1H-indol-4-yl)oxy)phenoxy)ethyl)pyrimidine-2,4(1H,3H)-dione]
CC50 (in vitro): 53 µM

O=c1ccn(CCOc2cc(Cl)ccc2Oc2cccc3[nH]ccc23)c(=O)[nH]1 [8b, 1-(2-(2-((1H-indol-4-yl)oxy)-5-chlorophenoxy)ethyl)pyrimidine-2,4(1H,3H)-dione]
CC50 (in vitro): 18 µM

Cc1cc2c(Oc3ccccc3OCCn3ccc(=O)[nH]c3=O)cccc2[nH]1 [8c, 1-(2-(2-((2-methyl-1H-indol-4-yl)oxy)phenoxy)ethyl)pyrimidine-2,4(1H,3H)-dione]
CC50 (in vitro): 15 µM

N#Cc1cc2c(Oc3ccccc3OCCn3ccc(=O)[nH]c3=O)cccc2[nH]1 [8d, 4-(2-(2-(2,4-dioxo-3,4-dihydropyrimidin-1(2H)-yl)ethoxy)phenoxy)-1H-indole-2-carbonitrile]
CC50 (in vitro): 72 µM

Cc1cc(Oc2ccccc2OCCn2ccc(=O)[nH]c2=O)c2cc(C#N)[nH]c2c1 [8e, 4-(2-(2-(2,4-dioxo-3,4-dihydropyrimidin-1(2H)-yl)ethoxy)phenoxy)-6-methyl-1H-indole-2-carbonitrile]
CC50 (in vitro): 1.2 µM

N#Cc1cc2c(Oc3ccccc3OCCn3ccc(=O)[nH]c3=O)cc(Cl)cc2[nH]1 [8f, 6-chloro-4-(2-(2-(2,4-dioxo-3,4-dihydropyrimidin-1(2H)-yl)ethoxy)phenoxy)-1H-indole-2-carbonitrile]
CC50 (in vitro): 81 µM

Cc1cc2c(Oc3ccccc3OCCn3ccc(=O)[nH]c3=O)cccn2c1 [10a, 1-(2-(2-((2-methylindolizin-8-yl)oxy)phenoxy)ethyl)pyrimidine-2,4(1H,3H)-dione]
CC50 (in vitro): 9 µM

N#Cc1cc2c(Oc3ccccc3OCCn3ccc(=O)[nH]c3=O)cccn2c1 [10b, 8-(2-(2-(2,4-dioxo-3,4-dihydropyrimidin-1(2H)-yl)ethoxy)phenoxy)indolizine-2-carbonitrile]
CC50 (human MT-2 T-cells): > 100 µM | CC50 (in vitro): > 100 µM

Cc1cc(Oc2ccccc2OCCn2ccc(=O)[nH]c2=O)c2cc(C#N)cn2c1 [10c, 8-(2-(2-(2,4-dioxo-3,4-dihydropyrimidin-1(2H)-yl)ethoxy)phenoxy)-6-methylindolizine-2-carbonitrile]
CC50 (in vitro): 3 µM

N#Cc1cc2c(Oc3ccccc3OCCn3ccc(=O)[nH]c3=O)cc(F)cn2c1 [10d, 8-(2-(2-(2,4-dioxo-3,4-dihydropyrimidin-1(2H)-yl)ethoxy)phenoxy)-6-fluoroindolizine-2-carbonitrile]
CC50 (human MT-2 T-cells): 40 µM

N#Cc1cc2c(Oc3ccc(F)cc3OCCn3ccc(=O)[nH]c3=O)cc(Cl)cn2c1 [10i, 6-chloro-8-(2-(2-(2,4-dioxo-3,4-dihydropyrimidin-1(2H)-yl)ethoxy)-4-fluorophenoxy)indolizine-2-carbonitrile]
CC50 (human MT-2 T-cells): 15 µM

N#Cc1cc2c(Oc3cc(F)ccc3OCCn3ccc(=O)[nH]c3=O)cccn2c1 [10j, 8-(2-(2-(2,4-dioxo-3,4-dihydropyrimidin-1(2H)-yl)ethoxy)-5-fluorophenoxy)indolizine-2-carbonitrile]
CC50 (in vitro): 35 µM

N#Cc1cc2c(Oc3cc(F)c(F)cc3OCCn3ccc(=O)[nH]c3=O)cccn2c1 [10k, 8-(2-(2-(2,4-dioxo-3,4-dihydropyrimidin-1(2H)-yl)ethoxy)-4,5-difluorophenoxy)indolizine-2-carbonitrile]
CC50 (in vitro): 19 µM

N#Cc1cc2c(Oc3cc(F)c(F)cc3OCCn3ccc(=O)[nH]c3=O)cc(F)cn2c1 [10l, 8-(2-(2-(2,4-dioxo-3,4-dihydropyrimidin-1(2H)-yl)ethoxy)-4,5-difluorophenoxy)-6-fluoroindolizine-2-carbonitrile]
CC50 (in vitro): 54 µM

N#Cc1cc2c(Oc3ccc(Cl)cc3OCCn3ccc(=O)[nH]c3=O)cccn2c1 [10m, 8-(4-chloro-2-(2-(2,4-dioxo-3,4-dihydropyrimidin-1(2H)-yl)ethoxy)phenoxy)indolizine-2-carbonitrile]
CC50 (in vitro): 55 µM

N#Cc1cc2c(Oc3ccc(Cl)cc3OCCn3ccc(=O)[nH]c3=O)cc(Cl)cn2c1 [10n, 6-chloro-8-(4-chloro-2-(2-(2,4-dioxo-3,4-dihydropyrimidin-1(2H)-yl)ethoxy)phenoxy)indolizine-2-carbonitrile]
CC50 (in vitro): 20 µM

N#Cc1cc2c(Oc3ccccc3OCCn3ccc(=O)[nH]c3=O)cccc2o1 [12a, 4-(2-(2-(2,4-dioxo-3,4-dihydropyrimidin-1(2H)-yl)ethoxy)phenoxy)benzofuran-2-carbonitrile]
CC50 (human MT-2 T-cells): > 100 µM | CC50 (in vitro): > 100 µM

Cc1cc(Oc2ccccc2OCCn2ccc(=O)[nH]c2=O)c2cc(C#N)oc2c1 [12b, 4-(2-(2-(2,4-dioxo-3,4-dihydropyrimidin-1(2H)-yl)ethoxy)phenoxy)-6-methylbenzofuran-2-carbonitrile]
CC50 (in vitro): > 100 µM

N#Cc1cc2c(Oc3ccccc3OCCn3ccc(=O)[nH]c3=O)cc(Cl)cc2o1 [12c, 6-chloro-4-(2-(2-(2,4-dioxo-3,4-dihydropyrimidin-1(2H)-yl)ethoxy)phenoxy)benzofuran-2-carbonitrile]
CC50 (human MT-2 T-cells): > 100 µM | CC50 (in vitro): > 100 µM

N#Cc1cc2c(Oc3ccc(F)cc3OCCn3ccc(=O)[nH]c3=O)cccc2o1 [12d, 4-(2-(2-(2,4-dioxo-3,4-dihydropyrimidin-1(2H)-yl)ethoxy)-4-fluorophenoxy)benzofuran-2-carbonitrile]
CC50 (human MT-2 T-cells): > 100 µM | CC50 (in vitro): > 100 µM

Cc1cc(Oc2ccc(F)cc2OCCn2ccc(=O)[nH]c2=O)c2cc(C#N)oc2c1 [12e, 4-(2-(2-(2,4-dioxo-3,4-dihydropyrimidin-1(2H)-yl)ethoxy)-4-fluorophenoxy)-6-methylbenzofuran-2-carbonitrile]
CC50 (in vitro): > 100 µM

O=c1ccn(CCOc2cc(Cl)ccc2Oc2cccc3occc23)c(=O)[nH]1 [12f, 1-(2-(2-(benzofuran-4-yloxy)-5-chlorophenoxy)ethyl)pyrimidine-2,4(1H,3H)-dione]
CC50 (in vitro): 19 µM

Cc1cc2c(Oc3ccc(Cl)cc3OCCn3ccc(=O)[nH]c3=O)cccc2o1 [12g, 1-(2-(5-chloro-2-((2-methylbenzofuran-4-yl)oxy)phenoxy)ethyl)pyrimidine-2,4(1H,3H)-dione]
CC50 (in vitro): 8 µM

N#Cc1cc2c(Oc3ccc(Cl)cc3OCCn3ccc(=O)[nH]c3=O)cccc2o1 [12h, 4-(4-chloro-2-(2-(2,4-dioxo-3,4-dihydropyrimidin-1(2H)-yl)ethoxy)phenoxy)benzofuran-2-carbonitrile]
CC50 (in vitro): 7 µM

O=c1ccn(CCOc2cc(Cl)ccc2Oc2cccc3ccoc23)c(=O)[nH]1 [13a, 1-(2-(2-(benzofuran-7-yloxy)-5-chlorophenoxy)ethyl)pyrimidine-2,4(1H,3H)-dione]
CC50 (in vitro): 50 µM

Cc1ccc2c(Oc3ccccc3OCCn3ccc(=O)[nH]c3=O)cccc2c1 [14b, 1-(2-(2-((6-methylnaphthalen-1-yl)oxy)phenoxy)ethyl)pyrimidine-2,4(1H,3H)-dione]
CC50 (human MT-2 T-cells): 40 µM

O=c1ccn(CCOc2ccccc2Oc2cccc3cc(Cl)ccc23)c(=O)[nH]1 [14c, 1-(2-(2-((6-chloronaphthalen-1-yl)oxy)phenoxy)ethyl)pyrimidine-2,4(1H,3H)-dione]
CC50 (human MT-2 T-cells): > 100 µM

O=c1ccn(CCOc2ccccc2Oc2cc(Cl)cc3cc(Cl)ccc23)c(=O)[nH]1 [14d, 1-(2-(2-((3,6-dichloronaphthalen-1-yl)oxy)phenoxy)ethyl)pyrimidine-2,4(1H,3H)-dione]
CC50 (human MT-2 T-cells): 45 µM

N#Cc1ccc2c(Oc3ccccc3OCCn3ccc(=O)[nH]c3=O)cc(Cl)cc2c1 [14f, 7-chloro-5-(2-(2-(2,4-dioxo-3,4-dihydropyrimidin-1(2H)-yl)ethoxy)phenoxy)-2-naphthonitrile]
CC50 (human MT-2 T-cells): 24 µM

N#Cc1ccc2c(Oc3ccc(F)cc3OCCn3ccc(=O)[nH]c3=O)cc(Cl)cc2c1 [14g, 7-chloro-5-(2-(2-(2,4-dioxo-3,4-dihydropyrimidin-1(2H)-yl)ethoxy)-4-fluorophenoxy)-2-naphthonitrile]
CC50 (human MT-2 T-cells): 16 µM

N#Cc1ccc2c(Oc3ccc(Cl)cc3OCCn3ccc(=O)[nH]c3=O)cc(Cl)cc2c1 [14h, 7-chloro-5-(4-chloro-2-(2-(2,4-dioxo-3,4-dihydropyrimidin-1(2H)-yl)ethoxy)phenoxy)-2-naphthonitrile]
CC50 (human MT-2 T-cells): 20 µM

N#Cc1ccc2c(Oc3ccc(F)cc3OCCn3ccc(=O)[nH]c3=O)cccc2c1 [14i, 5-(2-(2-(2,4-dioxo-3,4-dihydropyrimidin-1(2H)-yl)ethoxy)-4-fluorophenoxy)-2-naphthonitrile]
CC50 (human MT-2 T-cells): > 100 µM | CC50 (in vitro): > 100 µM

N#Cc1ccc2c(Oc3ccc(Cl)cc3OCCn3ccc(=O)[nH]c3=O)cccc2c1 [14j, 5-(4-chloro-2-(2-(2,4-dioxo-3,4-dihydropyrimidin-1(2H)-yl)ethoxy)phenoxy)-2-naphthonitrile]
CC50 (human MT-2 T-cells): > 100 µM

N#Cc1ccc2c(Oc3ccccc3OCCn3ccc(=O)[nH]c3=O)cc(F)cc2c1 [14k, 5-(2-(2-(2,4-dioxo-3,4-dihydropyrimidin-1(2H)-yl)ethoxy)phenoxy)-7-fluoro-2-naphthonitrile]
CC50 (human MT-2 T-cells): > 100 µM | CC50 (in vitro): > 100 µM

N#Cc1ccc2c(Oc3ccc(F)cc3OCCn3ccc(=O)[nH]c3=O)cc(F)cc2c1 [14l, 5-(2-(2-(2,4-dioxo-3,4-dihydropyrimidin-1(2H)-yl)ethoxy)-4-fluorophenoxy)-7-fluoro-2-naphthonitrile]
CC50 (human MT-2 T-cells): > 100 µM | CC50 (in vitro): > 100 µM

N#Cc1ccc2c(Oc3ccc(Cl)cc3OCCn3ccc(=O)[nH]c3=O)cc(F)cc2c1 [14m, 5-(4-chloro-2-(2-(2,4-dioxo-3,4-dihydropyrimidin-1(2H)-yl)ethoxy)phenoxy)-7-fluoro-2-naphthonitrile]
CC50 (human MT-2 T-cells): 18 µM
